{
  "source": "patent US20100003217A1",
  "about": "“Compounds and Pharmaceutical Compositions for the Treatment of Viral Infections” (priority 2008, published 2010)",
  "tested_on": "human primary hepatocytes",
  "test": "Metabolic disposition of [^14C]-Compound 1 and [^14C]-2′-C-methyl guanosine in human primary hepatocytes (incubation medium, cellular extracts, nucleotide levels)",
  "type": "in vitro ADME",
  "description": "Primary hepatocytes: Freshly isolated cells from animal and human liver were obtained in suspension on ice. Cells were pelleted by centrifugation at 70-75×g (rat) or 95-90×g (monkey and human) and resuspended at 0.8 million cells per mL of platting medium (William's E supplemented with 5% FBS, 0.5% penicillin-streptomycin, 1% L-glutamine, 4 μg/mL insulin and 1 μM dexamethasone). Multi-well collagen I-coated plates (rat tail collagen type I; 12- or 6-well) were then seeded by addition of 1 mL (12-well; 0.8 million cells/well) or 2 mL (6-well; 1.6 million cells/well) of cell suspension. The plates were gently shaken to evenly distribute the cells and placed in an incubator at 37° C. for approximately 4 to 6 hours to allow cells to attach. Once cells were attached, the platting medium was removed and replaced with hepatocyte culture medium (William's E supplemented with penicillin-streptomycin, 1% L-glutamine, 1% insulin-transferrin-selenium and 0.1 μM dexamethasone). Cells were left overnight in an incubator at 37° C. to acclimatize to culture and the medium.\nHepatocyte incubations with radiolabeled Compound 1 and 2′-C-methyl guanosine, both labeled in the C-8 position of the guanine moiety, were conducted at a final volume of 2.0 mL hepatocyte culture medium/well ([…]). Culture medium from overnight incubation of cells was removed and replaced with fresh medium, pre-warmed to 37° C., containing 1 or 10 μM [^14C]-Compound 1 ([…]) or [^14C]-2′-C-methyl guanosine (127 DPM/μmol) from a stock solution in DMSO (final DMSO concentration was 0.1%) or 50% ethanol (final ethanol concentration was 0.2%). After 1, 4, 8 and 24 hours, 0.5-1.0 mL of incubation medium was removed and stored at −20° C. until analysis (described below). The remaining medium was discarded and cell monolayers were carefully washed two times with ice-cold PBS. Following the last wash, all PBS was carefully removed and 1.0 mL of extraction solution (ice-cold 70% methanol) added. Cells were scrapped off and suspended in the extraction solution, transferred to 2 mL polypropylene microfuge tubes and intracellular contents extracted overnight at −20° C.\nPreliminary identification of putative metabolites was conducted by comparing the retention time of observed metabolites in incubation medium and cellular extracts with retention times obtained with chemically synthesized standards using the chromatography conditions described below. Further identification of 2′-C-methyl guanosine nucleotides (mono-, di- and triphosphate) was carried out by incubating cellular extract samples with alkaline phosphatase (10 units for 60 min at 37° C.) and comparing the HPLC retention times of the resulting nucleosides with that of authentic 2′-C-methyl guanosine.\nCellular extracts were prepared by centrifugation at 16,000 RCF using an Eppendorf microcentrifuge (Eppendorf, Model 5415D) for 10 min to remove cellular debris. An aliquot of 5-10 μL of the supernatant was added to 5 mL of EcoLite™ (MP, Irvine, Calif.) liquid scintillation cocktail and radioactivity measured by liquid scintillation counting (LSC) using a Beckman Coulter LS6500 multipurpose liquid scintillation counter (Beckman Instruments, Fullerton, Calif.). The remaining sample was then dried using a Labconco refrigerated centrivap concentrator (Labconco, Kansas City, Mo.). Dry extracts were reconstituted in 120 μL of HPLC-grade water and centrifuged at 16,000 RCF using an Eppendorf microcentrifuge for 10 min. Prior to HPLC analysis (described below), radioactivity of the concentrated extracts was measured by LSC using 5 μL aliquots. Extraction recovery was then determined by comparing total radioactivity in extracts before and after drying. The remaining extract was then analyzed by HPLC with online radioactivity detection using a Flow Scintillation Analyzer Radiomatic™ 515TR. Radioactivity in the separated components was quantified by integrating the peaks using Flo-One™ Software (Perkin Elmer Life Sciences). […]",
  "key": {"[1]": {"conditions": "human hepatocytes (Hu775), 1 μM [^14C]-Compound 1, 1 h"}, "[2]": {"conditions": "human hepatocytes (Hu775), 1 μM [^14C]-Compound 1, 8 h"}, "[3]": {"conditions": "human hepatocytes (Hu775), 1 μM [^14C]-Compound 1, 24 h"}, "[4]": {"conditions": "human hepatocytes Hu775, 1 μM [^14C]-2′-C-methyl guanosine, 1 h"}, "[5]": {"conditions": "human hepatocytes Hu775, 1 μM [^14C]-2′-C-methyl guanosine, 8 h"}, "[6]": {"conditions": "human hepatocytes Hu775, 1 μM [^14C]-2′-C-methyl guanosine, 24 h"}},
  "note": "Where “and” joins values, the source holds several entries; their conditions need not be identical. Equal entries are not always repeated.",
  "data": [
    {"smiles": "C[C@@]1(O)[C@H](O)[C@@H](COP(=O)(O)O)O[C@H]1n1cnc2c(=O)[nH]c(N)nc21", "note": "[Compound 5, [(2R)-2-methyl-β-D-ribofuranosyl]guanine 5′-monophosphate]", "values": [
      {"measurement": "metabolites observed in cellular extracts (% of total radioactivity)", "setting": "[1]", "result": 5.45, "unit": "%"},
      {"measurement": "metabolites observed in medium (% of total radioactivity)", "setting": "[1]", "result": "BLD"},
      {"measurement": "2′-C-methyl guanosine nucleotide levels in cellular extracts", "setting": "[2]", "result": 2.10, "unit": "pmol/million cells"},
      {"measurement": "metabolites observed in cellular extracts (% of total radioactivity)", "setting": "[2]", "result": 3.60, "unit": "%"},
      {"measurement": "metabolites observed in medium (% of total radioactivity)", "setting": "[2]", "result": 10.4, "unit": "%"},
      {"measurement": "2′-C-methyl guanosine nucleotide levels in cellular extracts", "setting": "[3]", "result": 5.80, "unit": "pmol/million cells"},
      {"measurement": "metabolites observed in cellular extracts (% of total radioactivity)", "setting": "[3]", "result": 6.41, "unit": "%"},
      {"measurement": "metabolites observed in medium (% of total radioactivity)", "setting": "[3]", "result": "8% and 8.29%"},
      {"measurement": "metabolites observed in medium (% of total radioactivity)", "setting": "human hepatocytes (lots Hu759, Hu775), 10 μM [^14C]-Compound 1, 0 h", "result": "BLD"},
      {"measurement": "metabolites observed in medium (% of total radioactivity)", "setting": "human hepatocytes (lots Hu759, Hu775), 10 μM [^14C]-Compound 1, 1 h", "result": "4.4% and 0.5%"},
      {"measurement": "metabolites observed in medium (% of total radioactivity)", "setting": "human hepatocytes (lots Hu759, Hu775), 10 μM [^14C]-Compound 1, 4 h", "result": "3.9% and 4.5%"},
      {"measurement": "metabolites observed in medium (% of total radioactivity)", "setting": "human hepatocytes (lots Hu759, Hu775), 10 μM [^14C]-Compound 1, 8 h", "result": "5.1% and 7.2%"},
      {"measurement": "metabolites observed in medium (% of total radioactivity)", "setting": "human hepatocytes (lots Hu759, Hu775), 10 μM [^14C]-Compound 1, 24 h", "result": "4.7% and 7.1%"},
      {"measurement": "2′-C-methyl guanosine nucleotide levels in cellular extracts", "setting": "human hepatocytes Hu759, 10 μM [^14C]-2′-C-methyl guanosine, 0 h", "result": 0, "unit": "pmol/million cells"},
      {"measurement": "2′-C-methyl guanosine nucleotide levels in cellular extracts", "setting": "human hepatocytes Hu759, 10 μM [^14C]-2′-C-methyl guanosine, 1 h", "result": "BLD^a (BLD = below limit of detection (0.02 pmol/million cells))"},
      {"measurement": "2′-C-methyl guanosine nucleotide levels in cellular extracts", "setting": "human hepatocytes Hu759, 10 μM [^14C]-2′-C-methyl guanosine, 4 h", "result": "BLD (BLD = below limit of detection (0.02 pmol/million cells))"},
      {"measurement": "2′-C-methyl guanosine nucleotide levels in cellular extracts", "setting": "human hepatocytes Hu759, 10 μM [^14C]-2′-C-methyl guanosine, 8 h", "result": 9.00, "unit": "pmol/million cells"},
      {"measurement": "2′-C-methyl guanosine nucleotide levels in cellular extracts", "setting": "human hepatocytes Hu759, 10 μM [^14C]-2′-C-methyl guanosine, 24 h", "result": 23.0, "unit": "pmol/million cells"},
      {"measurement": "2′-C-methyl guanosine nucleotide levels in cellular extracts", "setting": "human hepatocytes Hu759, 10 μM [^14C]-Compound 1, 0 h", "result": 0, "unit": "pmol/million cells"},
      {"measurement": "2′-C-methyl guanosine nucleotide levels in cellular extracts", "setting": "human hepatocytes Hu759, 10 μM [^14C]-Compound 1, 1 h", "result": 4.00, "unit": "pmol/million cells"},
      {"measurement": "2′-C-methyl guanosine nucleotide levels in cellular extracts", "setting": "human hepatocytes Hu759, 10 μM [^14C]-Compound 1, 4 h", "result": 15.0, "unit": "pmol/million cells"},
      {"measurement": "2′-C-methyl guanosine nucleotide levels in cellular extracts", "setting": "human hepatocytes Hu759, 10 μM [^14C]-Compound 1, 8 h", "result": 25.0, "unit": "pmol/million cells"},
      {"measurement": "2′-C-methyl guanosine nucleotide levels in cellular extracts", "setting": "human hepatocytes Hu759, 10 μM [^14C]-Compound 1, 24 h", "result": 28.0, "unit": "pmol/million cells"},
      {"measurement": "2′-C-methyl guanosine nucleotide levels in cellular extracts", "setting": "human hepatocytes Hu775, 1 μM [^14C]-2′-C-methyl guanosine, 0 h", "result": "BLD (BLD = below limit of detection (0.02 pmol/million cells))"},
      {"measurement": "2′-C-methyl guanosine nucleotide levels in cellular extracts", "setting": "[4]", "result": "BLD (BLD = below limit of detection (0.02 pmol/million cells))"},
      {"measurement": "Major metabolites observed in cellular extracts (% of total radioactivity)", "setting": "[4]", "result": "BLD^a (BLD = below limit of detection (30 DPM))"},
      {"measurement": "2′-C-methyl guanosine nucleotide levels in cellular extracts", "setting": "[5]", "result": "BLD (BLD = below limit of detection (0.02 pmol/million cells))"},
      {"measurement": "Major metabolites observed in cellular extracts (% of total radioactivity)", "setting": "[5]", "result": "BLD (BLD = below limit of detection (30 DPM))"},
      {"measurement": "2′-C-methyl guanosine nucleotide levels in cellular extracts", "setting": "[6]", "result": 1.50, "unit": "pmol/million cells"},
      {"measurement": "Major metabolites observed in cellular extracts (% of total radioactivity)", "setting": "[6]", "result": "3.39 % of total radioactivity"},
      {"measurement": "2′-C-methyl guanosine nucleotide levels in cellular extracts", "setting": "human hepatocytes Hu775, 10 μM [^14C]-2′-C-methyl guanosine, 0 h", "result": 0, "unit": "pmol/million cells"},
      {"measurement": "2′-C-methyl guanosine nucleotide levels in cellular extracts", "setting": "human hepatocytes Hu775, 10 μM [^14C]-2′-C-methyl guanosine, 1 h", "result": 2.80, "unit": "pmol/million cells"},
      {"measurement": "2′-C-methyl guanosine nucleotide levels in cellular extracts", "setting": "human hepatocytes Hu775, 10 μM [^14C]-2′-C-methyl guanosine, 4 h", "result": 4.00, "unit": "pmol/million cells"},
      {"measurement": "2′-C-methyl guanosine nucleotide levels in cellular extracts", "setting": "human hepatocytes Hu775, 10 μM [^14C]-2′-C-methyl guanosine, 8 h", "result": 4.90, "unit": "pmol/million cells"},
      {"measurement": "2′-C-methyl guanosine nucleotide levels in cellular extracts", "setting": "human hepatocytes Hu775, 10 μM [^14C]-2′-C-methyl guanosine, 24 h", "result": 16.0, "unit": "pmol/million cells"},
      {"measurement": "2′-C-methyl guanosine nucleotide levels in cellular extracts", "setting": "human hepatocytes Hu775, 10 μM [^14C]-Compound 1, 0 h", "result": 0, "unit": "pmol/million cells"},
      {"measurement": "2′-C-methyl guanosine nucleotide levels in cellular extracts", "setting": "human hepatocytes Hu775, 10 μM [^14C]-Compound 1, 1 h", "result": 10.3, "unit": "pmol/million cells"},
      {"measurement": "2′-C-methyl guanosine nucleotide levels in cellular extracts", "setting": "human hepatocytes Hu775, 10 μM [^14C]-Compound 1, 4 h", "result": 17.1, "unit": "pmol/million cells"},
      {"measurement": "2′-C-methyl guanosine nucleotide levels in cellular extracts", "setting": "human hepatocytes Hu775, 10 μM [^14C]-Compound 1, 8 h", "result": 21.9, "unit": "pmol/million cells"},
      {"measurement": "2′-C-methyl guanosine nucleotide levels in cellular extracts", "setting": "human hepatocytes Hu775, 10 μM [^14C]-Compound 1, 24 h", "result": 121, "unit": "pmol/million cells"}
    ]}
  ]
}
